Results as given in PubChem BioAssay (NCI).
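Growth conditions: 96-well plates. Treatment: test compound, 48 hours, 5 concentrations. Analysis: linear interpolation between bracketing concentrations; unreached endpoints set to highest concentration. The concentration for 50% growth inhibition is given as GI50. TGI: total growth inhibition.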

Tests used:
Assay in all cases: NCI-60 cell line screen, 48 h; in the data active = GI50 below about 0.43 µM; inactive = the rest
[1] = test system: HOP-92 NSCLC
[2] = test system: PC-3 prostate
[3] = test system: CAKI-1 renal
[4] = test system: EKVX NSCLC
[5] = test system: NCI-H460 lung
[6] = test system: IGROV1 ovarian
[7] = test system: HT29 colon
[8] = test system: MALME-3M melanoma
[9] = test system: HCT-116 colon
[10] = test system: KM12 colon
[11] = test system: HS 578T breast
[12] = test system: M14 melanoma
[13] = test system: SW-620 colon
[14] = test system: RPMI-8226 leukemia
[15] = test system: OVCAR-5 ovarian
[16] = test system: NCI-H226 lung
[17] = test system: UACC-62 melanoma
[18] = test system: SK-MEL-2 melanoma
[19] = test system: MDA-MB-231 breast
[20] = test system: UO-31 renal
[21] = test system: UACC-257 melanoma
[22] = test system: SK-MEL-28 melanoma
[23] = test system: HL-60(TB) leukemia
[24] = test system: COLO 205 colon
[25] = test system: A498 renal
[26] = test system: NCI-H522 lung
[27] = test system: SF-539 CNS
[28] = test system: HOP-62 NSCLC
[29] = test system: OVCAR-3 ovarian
[30] = test system: SK-OV-3 ovarian
[31] = test system: SF-268 CNS
[32] = test system: SNB-19 CNS
[33] = test system: MDA-N
[34] = test system: A549 NSCLC
[35] = test system: NCI-H23 lung
[36] = test system: SK-MEL-5 melanoma
[37] = test system: U251 CNS
[38] = test system: MOLT-4 leukemia
[39] = test system: 786-0 renal
[40] = test system: LOX IMVI melanoma
[41] = test system: K-562 leukemia
[42] = test system: TK-10 renal
[43] = test system: SN12C renal
[44] = test system: OVCAR-8 ovarian
[45] = test system: SF-295 CNS
[46] = test system: MDA-MB-435
[47] = test system: RXF 393 renal
[48] = test system: NCI/ADR-RES ovarian
[49] = test system: SNB-75 CNS
[50] = test system: BT-549 breast
[51] = test system: T-47D breast
[52] = test system: HCT-15 colon
[53] = test system: ACHN renal
[54] = test system: DU-145 prostate
[55] = test system: CCRF-CEM leukemia
[56] = test system: HCC-2998 colon
[57] = test system: MCF7 breast
[58] = test system: SR leukemia
[59] = test system: OVCAR-4 ovarian

CNc1nc(OC)c2c(n1)[n+](C)cn2C
> 100 µM: TGI [1] | TGI [2] | TGI [3] | TGI [4] | TGI [5] | TGI [6] | TGI [7] | TGI [8] | TGI [9] | TGI [10] | TGI [11] | TGI [12] | TGI [13] | TGI [14] | TGI [15] | TGI [16] | TGI [17] | TGI [18] | TGI [19] | TGI [20] | TGI [21] | TGI [22] | TGI [23] | TGI [24] | TGI [25] | TGI [26] | TGI [27] | TGI [28] | TGI [29] | TGI [30] | TGI [31] | TGI [32] | TGI [33] | TGI [34] | TGI [35] | TGI [36] | TGI [37] | TGI [38] | TGI [39] | TGI [40] | TGI [41] | TGI [42] | TGI [43] | TGI [44] | TGI [45] | TGI [46] | TGI [47] | TGI [48] | TGI [49] | TGI [50] | TGI [51] | TGI [52] | TGI [53] | TGI [54] | TGI [55]

CC(C)S1=C2C(=O)CC(C)(C)CC2=Nc2ccccc21 (stereo unspecified)
> 100 µM: TGI [1] | TGI [2] | TGI [3] | TGI [4] | TGI [5] | TGI [6] | TGI [7] | TGI [56] | TGI [8] | TGI [9] | TGI [10] | TGI [11] | TGI [12] | TGI [13] | TGI [14] | TGI [15] | TGI [16] | TGI [17] | TGI [57] | TGI [18] | TGI [19] | TGI [20] | TGI [21] | TGI [22] | TGI [24] | TGI [25] | TGI [26] | TGI [28] | TGI [29] | TGI [30] | TGI [31] | TGI [32] | TGI [33] | TGI [34] | TGI [35] | TGI [36] | TGI [37] | TGI [38] | TGI [39] | TGI [40] | TGI [41] | TGI [42] | TGI [43] | TGI [44] | TGI [45] | TGI [46] | TGI [47] | TGI [48] | TGI [58] | TGI [49] | TGI [50] | TGI [51] | TGI [52] | TGI [59] | TGI [53] | TGI [54] | TGI [55]

CC(C)=C[C@@H]1C[C@H](C)[C@H]2CC[C@H](C)[C@H]3C(=O)C(O)=C(C)C(=O)[C@]123
> 100 µM: TGI [1] | TGI [2] | TGI [3] | TGI [4] | TGI [5] | TGI [6] | TGI [7] | TGI [56] | TGI [8] | TGI [9] | TGI [10] | TGI [11] | TGI [12] | TGI [13] | TGI [14] | TGI [15] | TGI [16] | TGI [17] | TGI [57] | TGI [19] | TGI [20] | TGI [21] | TGI [22] | TGI [23] | TGI [24] | TGI [25] | TGI [26] | TGI [27] | TGI [28] | TGI [29] | TGI [30] | TGI [31] | TGI [32] | TGI [33] | TGI [34] | TGI [35] | TGI [36] | TGI [37] | TGI [38] | TGI [39] | TGI [40] | TGI [41] | TGI [42] | TGI [43] | TGI [44] | TGI [45] | TGI [46] | TGI [48] | TGI [49] | TGI [50] | TGI [52] | TGI [59] | TGI [53] | TGI [54] | TGI [55]

NNC(=O)COc1nc(-c2cccs2)nc2ccc(I)cc12
75.6 µM: TGI [28]
71.3 µM: TGI [18]
63.5 µM: TGI [20]
63.9 µM: TGI [56]
70.4 µM: TGI [5]
44.8 µM: TGI [42]
61.8 µM: TGI [1]
88.7 µM: TGI [57]
78.8 µM: TGI [39]
71 µM: TGI [4]
74.2 µM: TGI [53]
50.7 µM: TGI [54]
88.4 µM: TGI [55]
55.6 µM: TGI [58]
55.8 µM: TGI [37]
21.9 µM: TGI [51]
47 µM: TGI [46]
56 µM: TGI [52]
92.2 µM: TGI [43]
83.9 µM: TGI [16]
61 µM: TGI [30]
70.9 µM: TGI [24]
39.2 µM: TGI [32]
inactive: GI50 [14] 16 µM | GI50 [23] 37.9 µM | GI50 [41] 37 µM | GI50 [55] 20 µM
38.9 µM: TGI [50]
> 100 µM: TGI [2] | TGI [7] | TGI [13] | TGI [15] | TGI [23] | TGI [33] | TGI [38] | TGI [41] | TGI [44] | TGI [47]
58.3 µM: TGI [12]
36.3 µM: TGI [9]
36.9 µM: TGI [40]
44.1 µM: TGI [3]
77 µM: TGI [59]
40.7 µM: TGI [29]
86.2 µM: TGI [45]
45.8 µM: TGI [26]
56.2 µM: TGI [22]
41.2 µM: TGI [35]
45.1 µM: TGI [8] | TGI [17]
91.9 µM: TGI [48]
59 µM: TGI [49]
70.5 µM: TGI [31]
41.5 µM: TGI [10]
56.3 µM: TGI [6]
39.4 µM: TGI [14]
45 µM: TGI [36]
43.2 µM: TGI [34]

CC(=O)Oc1cc(OC(C)=O)c2c(c1C)CC[C@@H]1[C@@H]2CC[C@]2(C)[C@@H](OC(C)=O)CC[C@@H]12
31.2 µM: TGI [53]
34.4 µM: TGI [6]
38.8 µM: TGI [35]
61 µM: TGI [54]
29.2 µM: TGI [8] | TGI [9]
44 µM: TGI [49]
36.6 µM: TGI [56]
29 µM: TGI [2]
36.1 µM: TGI [38]
73.6 µM: TGI [58]
33 µM: TGI [22]
34.7 µM: TGI [17] | TGI [34]
38 µM: TGI [45]
28 µM: TGI [4]
34.8 µM: TGI [25] | TGI [39]
31.9 µM: TGI [37]
32.9 µM: TGI [13] | TGI [33]
30.5 µM: TGI [19]
31.4 µM: TGI [20]
32 µM: TGI [21] | TGI [26]
53.2 µM: TGI [11]
33.7 µM: TGI [43]
34.2 µM: TGI [16] | TGI [40]
52.1 µM: TGI [3]
30.8 µM: TGI [36]
27.7 µM: TGI [47]
29.8 µM: TGI [7]
36 µM: TGI [28]
54.6 µM: TGI [23]
57.6 µM: TGI [48]
33.3 µM: TGI [32] | TGI [52]
34.1 µM: TGI [5] | TGI [57] | TGI [50]
42.4 µM: TGI [44]
39.3 µM: TGI [31]
49.4 µM: TGI [55]
31.5 µM: TGI [10]
35.2 µM: TGI [1]
35 µM: TGI [42]
31.3 µM: TGI [14] | TGI [46]
30.4 µM: TGI [27]
34.9 µM: TGI [12]
31.7 µM: TGI [29]
89.2 µM: TGI [41]

COc1ccc(OC)c2c(Nc3ccc(S(=O)(=O)O)c4cc(S(=O)(=O)O)cc(S(=O)(=O)O)c34)cc(C)nc12
> 100 µM: TGI [2] | TGI [3] | TGI [4] | TGI [5] | TGI [6] | TGI [7] | TGI [56] | TGI [8] | TGI [9] | TGI [10] | TGI [11] | TGI [12] | TGI [13] | TGI [14] | TGI [15] | TGI [16] | TGI [17] | TGI [57] | TGI [18] | TGI [19] | TGI [20] | TGI [21] | TGI [22] | TGI [23] | TGI [24] | TGI [25] | TGI [26] | TGI [27] | TGI [28] | TGI [29] | TGI [30] | TGI [31] | TGI [33] | TGI [34] | TGI [35] | TGI [36] | TGI [37] | TGI [38] | TGI [39] | TGI [40] | TGI [41] | TGI [42] | TGI [43] | TGI [44] | TGI [45] | TGI [46] | TGI [47] | TGI [48] | TGI [49] | TGI [50] | TGI [51] | TGI [52] | TGI [59] | TGI [53] | TGI [54] | TGI [55]

CO/C(N)=C(\C#N)N=Cc1cccs1
90.1 µM: TGI [33]
65.4 µM: TGI [23]
> 100 µM: TGI [1] | TGI [2] | TGI [3] | TGI [4] | TGI [5] | TGI [6] | TGI [7] | TGI [56] | TGI [8] | TGI [9] | TGI [10] | TGI [11] | TGI [12] | TGI [13] | TGI [15] | TGI [16] | TGI [17] | TGI [57] | TGI [18] | TGI [19] | TGI [20] | TGI [21] | TGI [22] | TGI [24] | TGI [25] | TGI [27] | TGI [28] | TGI [29] | TGI [30] | TGI [31] | TGI [32] | TGI [34] | TGI [35] | TGI [36] | TGI [37] | TGI [38] | TGI [39] | TGI [40] | TGI [41] | TGI [42] | TGI [43] | TGI [44] | TGI [45] | TGI [47] | TGI [48] | TGI [49] | TGI [50] | TGI [51] | TGI [52] | TGI [59] | TGI [53] | TGI [54] | TGI [55]
73.3 µM: TGI [46]
79.6 µM: TGI [26]
